US12240862B2, “Inhibitors of peptidylarginine deiminases” (Gilead Sciences, Inc., priority 2020, dated 2025)

target: T1, human PAD4 (Homo sapiens, UniProt Q9UM07); experiment: In vitro PAD4 BAEE biochemical assay; details: human PAD4, BAEE substrate; 5 nM PAD4, 2 mM calcium chloride, 3 mM BAEE; geometric mean of multiple experiments
T1 construct: human PAD4 (NM_012387), A2P663, was PCR amplified; His-SUMO (N, cleaved yes); made in house; host or cells: E. coli BL21(DE3)
Experimental: The PCR product was ligated into linearized pET-SUMO vector (Invitrogen, Carlsbad, CA), which is part of the Champion™ pET SUMO Protein Expression System. After sequence verification for the correct orientation, the pET-SUMO-hPAD4 expression plasmid was transformed into BL21(DE3) cells.
E. Coli BL21(DE3) cells were inoculated in LB medium with kanamycin at 37° C. until A600 nm reached about 0.5. Protein expression was induced by addition of 0.5 mM IPTG (final) and continued overnight at 16° C. at 220 rpm.
Cells were harvested by centrifugation at 5000 rpm for 10 minutes at 4° C. The pellet was resuspended in 300 ml lysis buffer (20 mM Tris-HCl, pH 8.0, 1 mM EDTA, 500 mM NaCl, 1 mM (tris(2-carboxyethyl)phosphine) (TCEP), 10% glycerol, and 1% Triton X100 and EDTA free protease inhibitor) and lysed by 3× passage through a microfluidizer (Microfluidics, Newton, MA) at 18,000 psi. The cell lysate was clarified by centrifugation at 30,000 rpm for 60 minutes at 4° C. […] Bound protein was eluted with a 0-100% linear gradient of 100 mL Ni-B buffer (Ni A buffer+0.5 M Imidazole).
The protein was then reloaded onto a Ni—HP column for a reverse purification step and recovered in flow through fraction. The protein with His-Sumo tag removed was then polished using a 16/60 Superdex-200 gel filtration column with gel filtration buffer (20 mM Tris pH 8.0, NaCl 400 mM and 1 mM TCEP). The fractions containing the protein were pulled and frozen at −80° C.
The enzymatic activity of human PAD4 was monitored in a biochemical assay in the presence or absence of compounds using the small peptidyl arginine mimic BAEE (Na-Benzoyl-L-arginine ethyl ester hydrochloride) as substrate. PAD4 activity led to deamination of BAEE and release of ammonia. Levels of ammonia were monitored by using an amine coupling reaction and were indicative of PAD4 enzymatic activity.
One hundred nanoliters of test compounds dissolved in DMSO at various concentrations were dispensed into a 384-well black OptiPlate using a Labcyte Echo instrument. Ten microliters of a solution of recombinant PAD4 and calcium chloride diluted in PAD4 assay buffer (50 mM MOPS [3-(N-morpholino) propanesulfonic acid], pH 7.6; 50 mM sodium chloride; 0.05% Tween-20; 2 mM dithiothreitol) was added to the compound-containing plate and was incubated for 30 minutes at 25° C. Ten microliters of a solution of BAEE (Sigma-Aldrich #B4500) diluted in PAD4 assay buffer was then added to start the reaction. Final concentrations were 5 nM PAD4, 2 mM calcium chloride, and 3 mM BAEE. The reaction mixture was incubated at 25° C. for 2 hours and was stopped with the addition of 10 microliters of a solution of 75 mM EDTA (Ethylenediaminetetraacetic acid) in PAD4 assay buffer. Thirty microliters of detection solution (5 mM o-phthalaldehyde, 50 mM MOPS [3-(N-morpholino) propanesulfonic acid], pH 7.6; 50 mM sodium chloride; 0.05% Tween-20; 5 mM dithiothreitol) was then added and the reaction was incubated for 1 hour at 25° C.

T1 sequence (Q9UM07 2-663): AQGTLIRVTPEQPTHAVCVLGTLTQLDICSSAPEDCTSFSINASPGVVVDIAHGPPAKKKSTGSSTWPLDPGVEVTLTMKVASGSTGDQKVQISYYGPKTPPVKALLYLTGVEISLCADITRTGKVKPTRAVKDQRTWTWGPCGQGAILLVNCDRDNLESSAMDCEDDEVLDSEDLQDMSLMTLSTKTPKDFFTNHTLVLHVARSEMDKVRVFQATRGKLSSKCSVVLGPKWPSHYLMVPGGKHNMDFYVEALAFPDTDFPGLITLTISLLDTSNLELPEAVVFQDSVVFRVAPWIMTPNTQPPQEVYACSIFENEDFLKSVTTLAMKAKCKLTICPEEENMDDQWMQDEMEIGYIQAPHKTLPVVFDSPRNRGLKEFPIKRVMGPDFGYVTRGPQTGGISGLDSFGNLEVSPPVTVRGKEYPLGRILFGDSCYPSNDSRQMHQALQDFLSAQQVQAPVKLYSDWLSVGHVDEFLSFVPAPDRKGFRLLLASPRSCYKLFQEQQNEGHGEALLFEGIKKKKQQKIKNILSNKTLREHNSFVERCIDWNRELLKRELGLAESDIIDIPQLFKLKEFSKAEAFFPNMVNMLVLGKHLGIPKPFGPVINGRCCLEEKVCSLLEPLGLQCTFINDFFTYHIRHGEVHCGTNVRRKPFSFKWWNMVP

SMILES | IC50
COc1cc(C(=O)N[C@@H]2CC[C@@H](C)NC2)cc2nc(-c3cc4ccc(N(C(F)F)S(C)(=O)=O)nc4n3CC3CC3)c(C)n12 [Example 314, 2-[1-(cyclopropylmethyl)-6-[difluoromethyl (methylsulfonyl)amino]pyrrolo[2,3-b]pyridin-2-yl]-5-methoxy-3-methyl-~{N}-[(3~{R},6~{R})-6-methylpiperidin-3-yl]imidazo[1,2-a] pyridine-7-carboxamide] | 38700 nM
COc1cc(C(=O)N[C@H]2CNCC[C@@H]2C)cc2nc(-c3cc4ccc(N(C(F)F)S(C)(=O)=O)nc4n3CC3CC3)c(C)n12 [Example 282, 2-[1-(cyclopropylmethyl)-6-[difluoromethyl (methylsulfonyl)amino]pyrrolo[2,3-b]pyridin-2-yl]-5-methoxy-3-methyl-~{N}-[(3~{R},4~{S})-4-methylpiperidin-3-yl]imidazo[1,2-a] pyridine-7-carboxamide] | 10400 nM
COc1cc(C(=O)N2C[C@H]3C[C@H](C)[C@@H]2[C@@H]3N)cc2nc(-c3cc4ccc([C@@H](C)NC(=O)C(C)(C)C)nc4n3CC3CC3)c(C)n12 [Example 167, N-((R)-1-(2-(7-((1R,4R,6S,7R)-7-amino-6-methyl-2-azabicyclo[2.2.1]heptane-2-carbonyl)-5-methoxy-3-methylimidazo [1,2-a]pyridin-2-yl)-1-(cyclopropylmethyl)-1H-pyrrolo [2,3-b]pyridin-6-yl)ethyl) pivalamide] | 2700 nM
COc1cc(C(=O)N2[C@H]3CC[C@@H]2[C@H](N)C3)cc2nc(-c3cc4ccc([C@@H](C)NC(=O)c5ccc(C#N)cc5)nc4n3CC3CC3)c(C)n12 [Example 123, ~{N}-[(1~{R})-1-[2-[7-[(1~{R},2~{R},4~{S})-2-amino-7-azabicyclo[2.2.1]heptane-7-carbonyl]-5-methoxy-3-methylimidazo [1,2-a]pyridin-2-yl]-1-(cyclopropylmethyl)pyrrolo [2,3-b]pyridin-6-yl]ethyl]-4-cyanobenzamide] | 79 nM
COc1cc(C(=O)N2C[C@H](N)C[C@@H]2CF)cc2nc(-c3cc4ccc(N(C(F)F)S(C)(=O)=O)nc4n3CC3CC3)c(C)n12 [Example 353, N-[2-[7-[(2R,4R)-4-amino-2-(fluoromethyl)pyrrolidine-1-carbonyl]-5-methoxy-3-methyl-imidazo[1,2-a]pyridin-2-yl]-1-(cyclopropylmethyl)pyrrolo [2,3-b]pyridin-6-yl]-N-(difluoromethyl) methanesulfonamide] | 26800 nM
COc1cc(C(=O)N2CCC[C@@H](N)C2)cc2nc(-c3cc4ccc(C(NC(C)=O)C(C)C)nc4n3CC3CC3)c(C)n12 (stereo partly drawn) [Example 195, ~{N}-[1-[2-[7-[(3~{R})-3-aminopiperidine-1-carbonyl]-5-methoxy-3-methylimidazo [1,2-a]pyridin-2-yl]-1-(cyclopropylmethyl)pyrrolo [2,3-b]pyridin-6-yl]-2-methylpropyl]acetamide] | 519 nM
COc1cc(C(=O)N2C[C@H]3CCC[C@@H]2[C@@H]3N)cc2nc(-c3cc4ccc(N(C(F)F)S(C)(=O)=O)nc4n3CC3CC3)c(C)n12 [Example 349, N-(2-(7-((1R,5R,8R)-8-amino-6-azabicyclo[3.2.1]octane-6-carbonyl)-5-methoxy-3-methylimidazo [1,2-a]pyridin-2-yl)-1-(cyclopropylmethyl)-1H-pyrrolo[2,3-b]pyridin-6-yl)-N-(difluoromethyl) methanesulfonamide] | 485 nM
CCc1ccc2cc(-c3nc4cc(C(=O)N5CC6(CCCNC6)C5)cc(OC)n4c3C)n(CC3CC3)c2n1 [Example 594, [2-[1-(cyclopropylmethyl)-6-ethylpyrrolo[2,3-b]pyridin-2-yl]-5-methoxy-3-methylimidazo[1,2-a]pyridin-7-yl]-(2,8-diazaspiro[3.5]nonan-2-yl) methanone] | 1700 nM
CCN(C(=O)OC)c1ccc2cc(-c3nc4cc(C(=O)N5[C@H]6CC[C@@H]5[C@H](N)C6)cc(OC)n4c3C)n(CC3CC3)c2n1 [Example 470, methyl~{N}-[2-[7-[(1~{R},2~{R},4~{S})-2-amino-7-azabicyclo[2.2.1]heptane-7-carbonyl]-5-methoxy-3-methylimidazo [1,2-a]pyridin-2-yl]-1-(cyclopropylmethyl)pyrrolo [2,3-b]pyridin-6-yl]-~{N}-ethylcarbamate] | 165 nM
COc1cc(C(=O)N2[C@H]3CC[C@@H]2[C@H](N)C3)cc2nc(-c3cc4ccc([C@@H](C)NC(=O)c5cn(C)nc5Cl)nc4n3CC3CC3)c(C)n12 [Example 76, ~{N}-[(1~{R})-1-[2-[7-[(1~{R},2~{R},4~{S})-2-amino-7-azabicyclo[2.2.1]heptane-7-carbonyl]-5-methoxy-3-methylimidazo [1,2-a]pyridin-2-yl]-1-(cyclopropylmethyl)pyrrolo [2,3-b]pyridin-6-yl]ethyl]-3-chloro-1-methylpyrazole-4-carboxamide] | 58 nM
COc1cc(C(=O)N2C[C@H](N)CC[C@@H]2C)cc2nc(-c3cc4ccc(-c5c(C)n[nH]c5C)nc4n3CC3CC3)c(C)n12 [Example 611, [(2~{S},5~{R})-5-amino-2-methylpiperidin-1-yl]-[2-[1-(cyclopropylmethyl)-6-(3,5-dimethyl-1~{H}-pyrazol-4-yl)pyrrolo[2,3-b]pyridin-2-yl]-5-methoxy-3-methylimidazo[1,2-a]pyridin-7-yl]methanone] | 726 nM
COc1cc(C(=O)N2[C@H]3CC[C@@H]2[C@H](N)C3)cc2nc(-c3cc4ccc(C(C)C#N)nc4n3CC3CC3)c(C)n12 (stereo partly drawn) [Example 568, 2-[2-[7-[(1~{R},2~{R}, 4~{S})-2-amino-7-azabicyclo[2.2.1]heptane-7-carbonyl]-5-methoxy-3-methylimidazo[1,2-a]pyridin-2-yl]-1-(cyclopropylmethyl)pyrrolo [2,3-b]pyridin-6-yl] propanenitrile] | 133 nM
COc1cc(C(=O)N2CC[C@@H]3C[C@]3(N)C2)cc2nc(-c3cc4ccc(N(C(F)F)S(C)(=O)=O)nc4n3CC3CC3)c(C)n12 [Example 363, ~{N}-[2-[7-[(1~{R},6~{R})-1-amino-3-azabicyclo[4.1.0]heptane-3-carbonyl]-5-methoxy-3-methylimidazo[1,2-a]pyridin-2-yl]-1-(cyclopropylmethyl)pyrrolo [2,3-b]pyridin-6-yl]-~{N}-(difluoromethyl) methanesulfonamide] | 1960 nM
COc1cc(C(=O)N2[C@H]3CC[C@@H]2[C@H](N)C3)cc2nc(-c3cc4ccc([C@@H](C)NC(=O)CCC(=O)O)nc4n3CC3CC3)c(C)n12 [Example 163, 4-[[(1~{R})-1-[2-[7-[(1~{R},2~{R},4~{S})-2-amino-7-azabicyclo[2.2.1]heptane-7-carbonyl]-5-methoxy-3-methylimidazo [1,2-a]pyridin-2-yl]-1-(cyclopropylmethyl)pyrrolo [2,3-b]pyridin-6-yl]ethyl]amino]-4-oxobutanoic acid] | 19.1 nM
COc1cc(C(=O)N2[C@H]3CC[C@@H]2[C@H](N)C3)cc2nc(-c3cc4ccc(N(C(F)F)S(C)(=O)=O)nc4n3CC3CC3)c(C)n12 [Example 389, N-(2-(7-((1R,2R,4S)-2-amino-7-azabicyclo[2.2.1]heptane-7-carbonyl)-5-methoxy-3-methylimidazo[1,2-a]pyridin-2-yl)-1-(cyclopropylmethyl)-1H-pyrrolo[2,3-b]pyridin-6-yl)-N-(difluoromethyl)methanesulfonamide] | 84.8 nM
